# What was measured:
# [1] = molecular target: T1, human Cereblon WT GST-tagged protein (CRBN) (Homo sapiens, UniProt Q96SW2); assay: CRBN binding by HTRF (Cereblon binding kit); conditions: for inhibition at 0.5 µM: read-out: Inhibition Rate at 0.5 μM (%); for inhibition at 2 µM: read-out: Inhibition Rate at 2 μM (%)
# T1 construct: purchased CISBIO 64BDCRBNPEH
# Method: The CEREBLON BINDING kits (specification: 10,000 tests; product number: Catalog #64BDCRBNPEH; CISBIO company) was used to determine the CRBN binding ability of the compounds to be tested through a HTRF method (homogeneous time-resolved fluorescence). The specific methods are as follows: • 1. According to the instructions of the CEREBLON BINDING KITS, serial dilutions were performed for the test compounds of the present disclosure (including the compounds in Table 1, Table 2, and Examples 1-468) and for lenalidomide. Specifically, diluent #9 (1×) solution was used as the diluent, and multiple concentration gradients were set. The dilution operation can be performed according to one of the following two methods: • (1) The first dilution method: The test compounds of the present disclosure (including the compounds in Table 1, Table 2, and Examples 1-468) were subjected to 5-fold serial dilutions starting from a highest concentration of 40 μM, resulting in a total of 7 concentrations from high to low (40, 8, 1.6, 0.32, 0.064, 0.0128, 0.00256 μM). Subsequently, the diluted test compounds and corresponding detection reagents were added to each well of a 96-well plate, resulting in final test compound concentrations of 10, 2, 0.4, 0.08, 0.016, 0.0032, and 0.00064 μM, respectively. • (2) As an alternative, a second dilution method can be used: The test compounds of the present disclosure (including the compounds in Table 1, Table 2, and Examples 1-468) were subjected to 4-fold gradient dilutions starting from a highest concentration of 8 μM, resulting in 2 concentrations (8 μM, 2 μM). Into the 96-well plate, the diluted test compounds and corresponding detection reagents were added, resulting in final test compound concentrations of 2 μM and 0.5 μM, respectively. The experimental procedure is described below using the diluted 8 μM test compound and lenalidomide solutions as examples. • 2. 2.5 μL of the above 8 μM of the tested compounds and lenalidomide solution, as well as the same volume of diluent #9 (1×) solution (solvent control group, Std0) were added to each well of a 96-well plate, respectively. Then, 2.5 μL of human Cereblon WT GST-tagged protein solution was added to each well. Finally, 5 μL of the thoroughly mixed Thalidomide-Re reagent and GST Eu antibody working solution were added to each of the aforementioned wells. The final concentration of the tested compounds and lenalidomide in each well was 2 μM. • 3. The blank control wells were sequentially added with 2.5 μL of diluent #9 (1×) solution, 2.5 μL of PROTAC binding buffer, and 5 μL of thoroughly mixed Thalidomide-Re reagent and GST Eu antibody working solution. • 4. After sealing and incubating the solutions in the aforementioned wells at room temperature for 3 hours, the absorbance values at emission wavelengths of 620 nm and 665 nm were detected by the HTRF method using a Spark microplate reader (V3.1 SP1).
# The corresponding CRBN binding inhibition rate was calculated using the following method:
# Rcompound=OD 665 nmcompound/OD 620 nmcompound−OD 665 nmcontrol/OD 620 nmcontrol
# RStd0=OD 665 nmStd0/OD 620 nmStd0−OD 665 nmcontrol/OD 620 nmcontrol inhibition rate (%)=(1−Rcompound/RStd0)*100
# Note: OD 665 nmcompound is the absorbance value of each well of the compounds to be tested of the present disclosure at an emission wavelength of 665 nm. OD 620 nmcompound is the absorbance value of each well of the compounds to be tested of the present disclosure at an emission wavelength of 620 nm. OD 665 nmcontrol is the absorbance value of the blank control well at an emission wavelength of 665 nm. OD 620 nmcontrol is the absorbance value of the blank control well at an emission wavelength of 620 nm. OD 665 nmStd0 is the absorbance value of the solvent control well at an emission wavelength of 665 nm. OD 620 nmStd0 is the absorbance value of the solvent control well at an emission wavelength of 620 nm.
# [2] = test system: Human Multiple myeloma cell line (MM.1S); assay: Inhibition of MM.1S cell proliferation (CellTiter luminescent viability); type: cell-based; conditions: Homo sapiens, MM1.S, Table IG1, FAK inhibitor-based, 96 hours
# Procedure, shortened: (§1)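 IC50 is fitted from luminescent viability (CellTiter-Meiluncell) curves. Nine-point, 5-fold dilution series (top stock 2000 μM) are added at 0.5 μL per 100 μL medium to cells plated the day before, with growth at 37 °C and 5% CO2.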
# [3] = test system: Human myeloid monocytic leukemia cell line (MV-4-11); assay: Inhibition of MV-4-11 cell proliferation (CellTiter luminescent viability); type: cell-based; conditions: Homo sapiens, MV4-11, Table IG2, FAK inhibitor-based, 96 hours
# Procedure, shortened: as §1
# [4] = molecular target: T2, IRAK4 (Homo sapiens, UniProt Q9NWZ3); assay: Western blot degradation of IRAK4; type: cell-based; conditions: hPBMC Cell; 24 hours
# T2 construct: expression of target proteins in cells; endogenous in cells
# T2 sequence (Q9NWZ3 1-460): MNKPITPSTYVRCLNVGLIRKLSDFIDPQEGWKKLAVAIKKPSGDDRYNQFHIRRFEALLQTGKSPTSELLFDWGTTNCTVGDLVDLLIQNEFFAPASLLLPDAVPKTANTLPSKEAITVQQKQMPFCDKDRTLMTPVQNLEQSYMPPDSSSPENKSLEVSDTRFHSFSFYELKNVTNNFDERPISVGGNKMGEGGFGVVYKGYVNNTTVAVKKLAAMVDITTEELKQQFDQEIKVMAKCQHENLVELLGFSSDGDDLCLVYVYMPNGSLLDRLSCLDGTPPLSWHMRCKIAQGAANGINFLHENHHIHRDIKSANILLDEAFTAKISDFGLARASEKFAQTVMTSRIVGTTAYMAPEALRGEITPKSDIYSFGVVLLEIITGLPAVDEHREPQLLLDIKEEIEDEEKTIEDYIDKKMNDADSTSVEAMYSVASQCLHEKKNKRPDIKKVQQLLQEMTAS
# Procedure, shortened: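 Cells treated with compound, lysed, and target protein detected by Western blot (SDS-PAGE, nitrocellulose transfer). DC50 taken as the concentration giving band grayscale half that of DMSO control, estimated by concentration-response fitting; remaining protein (%) from target band normalised to internal control band; degradation (%) = 1 − remaining.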
# T1 sequence (Q96SW2 whole entry): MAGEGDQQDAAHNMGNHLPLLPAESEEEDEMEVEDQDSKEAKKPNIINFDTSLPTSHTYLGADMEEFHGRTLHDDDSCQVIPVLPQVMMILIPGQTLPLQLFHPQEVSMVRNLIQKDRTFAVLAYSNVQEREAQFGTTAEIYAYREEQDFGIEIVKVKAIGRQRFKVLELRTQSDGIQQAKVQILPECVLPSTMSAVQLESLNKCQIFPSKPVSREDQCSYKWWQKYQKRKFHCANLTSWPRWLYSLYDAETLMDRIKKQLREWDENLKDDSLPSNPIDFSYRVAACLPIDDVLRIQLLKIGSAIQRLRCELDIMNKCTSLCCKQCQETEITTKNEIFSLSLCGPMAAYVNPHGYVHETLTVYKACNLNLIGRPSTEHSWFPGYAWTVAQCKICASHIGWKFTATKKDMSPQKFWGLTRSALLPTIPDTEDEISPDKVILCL
inhibition at 0.5 µM ([1]; 0.5 μM),inhibition at 2 µM ([1]; 2 μM),SMILES,further results
10 to 20%,53 to 60%,"Cc1cc(-c2ccc3c4cnccc4n(C)c3c2)cnc1N1CCN(Cc2ccc3c(c2)CN(N2CCC(=O)NC2=O)C3=O)CC1 [GT-08540, 1-(5-((4-(3-methyl-5-(5-methyl-5H-pyrido[4,3-b]indol-7-yl)pyridin-2-yl)piperazin-1-yl)methyl)-1-oxoisoindolin-2-yl)dihydropyrimidine-2,4 (1H,3H)-dione]",–
10 to 20%,53 to 60%,"Cn1ncc(Cl)c1-c1cc(C(=O)N[C@H](CNCC2CCN(c3cccc4c3C(=O)N(N3CCC(=O)NC3=O)C4=O)CC2)Cc2cccc(F)c2)sc1Cl [GT-08587, (S)-5-chloro-4-(4-chloro-1-methyl-1H-pyrazol-5-yl)-N-(1-(((1-(2-(2,4-dioxotetrahydropyrimidin-1(2H)-yl)-1,3-dioxoisoindolin-4-yl)piperidin-4-yl)methyl)amino)-3-(3-fluorophenyl)propan-2-yl)thiophene-2-carboxamide]",–
30 to 40%,60 to 80%,"CNC(=O)c1ccccc1Nc1cc(Nc2ccc(N3CCN(Cc4ccc5c(c4)CN(N4CCC(=O)NC4=O)C5=O)CC3)cc2OC)ncc1C(F)(F)F [GT-07660, 2-((2-((4-(4-((2-(2,4-dioxotetrahydropyrimidin-1(2H)-yl)-1-oxoisoindolin-5-yl)methyl)piperazin-1-yl)-2-methoxyphenyl)amino)-5-(trifluoromethyl)pyridin-4-yl)amino)-N-methylbenzamide]","inhibition at 0.01 µM ([2]; 10 nM, read-out: Inhibition Rate at 10 nM (%)): 15 to 20%; inhibition at 0.5 µM ([2]; 500 nM, read-out: Inhibition Rate at 500 nM (%)): 60 to 80%; inhibition at 0.01 µM ([3]; MV-4-11, 10 nM, read-out: Inhibition Rate at 10 nM (%)): 50 to 60%; inhibition at 0.5 µM ([3]; MV-4-11, 500 nM, read-out: Inhibition Rate at 500 nM (%)): 80 to 100%"
30 to 40%,60 to 80%,"Cn1c2ccncc2c2ccc(-c3cnc(N4CCN(Cc5ccc6c(c5)CN(N5CCC(=O)NC5=O)C6=O)CC4)c(Cl)c3)cc21 [GT-08541, 1-(5-((4-(3-chloro-5-(5-methyl-5H-pyrido[4,3-b]indol-7-yl)pyridin-2-yl)piperazin-1-yl)methyl)-1-oxoisoindolin-2-yl)dihydropyrimidine-2,4 (1H,3H)-dione]",–
–,–,"CN(C)C(=O)c1cc2cnc(Nc3ccc(N4CCC(CN5CC6CC(C5)N6c5ccc6c(c5)C(=O)N(N5CCC(=O)NC5=O)C6=O)CC4)cn3)nc2n1C1CCCC1 [GT-05201, 7-cyclopentyl-2-((5-(4-((6-(2-(2,4-dioxotetrahydropyrimidin-1(2H)-yl)-1,3-dioxoisoindolin-5-yl)-3,6-diazabicyclo[3.1.1]heptan-3-yl)methyl)piperidin-1-yl)pyridin-2-yl)amino)-N,N-dimethyl-7H-pyrrolo[2,3-d]pyrimidine-6-carboxamide]",Inhibition Rate at 0.5 μM (%) ([1]; 0.5 μM): a3 (30% < a3 ≤ 40%); Inhibition Rate at 2 μM (%) ([1]; 2 μM): a5 (53% < a5 ≤ 60%)
20 to 30%,53 to 60%,"O=C1CCN(N2C(=O)c3ccc(N4CC5CCC4CN5CC4CCN(c5ccn6c(n5)nc5ccccc56)CC4)cc3C2=O)C(=O)N1 (centres unmarked) [GT-08828, 5-(5-((1-(benzo[4,5]imidazo[1,2-a]pyrimidin-2-yl)piperidin-4-yl)methyl)-2,5-diazabicyclo[2.2.2]octan-2-yl)-2-(2,4-dioxotetrahydropyrimidin-1(2H)-yl)isoindoline-1,3-dione]",–
20 to 30%,53 to 60%,"CN(Cc1ccc(-c2[nH]c3cc(F)cc4c3c2CCNC4=O)cc1)Cc1ccc2c(c1)CN(N1CCC(=O)NC1=O)C2=O [GT-08403, 1-(5-(((4-(8-fluoro-1-oxo-2,3,4,6-tetrahydro-1H-azepino[5,4,3-cd]indol-5-yl)benzyl)(methyl)amino)methyl)-1-oxoisoindolin-2-yl)dihydropyrimidine-2,4(1H,3H)-dione]",–
40 to 53%,60 to 80%,"O=C1CCN(N2C(=O)c3ccc(N4CC5CCC4CN5C[C@H]4CC[C@H](n5cc(NC(=O)c6cnn7ccc(N8C[C@H]9C[C@@H]8CO9)nc67)c(C(F)F)n5)CC4)cc3C2=O)C(=O)N1 [GT-05833, 5-((1R,4R)-2-oxa-5-azabicyclo[2.2.1]heptan-5-yl)-N-(3-(difluoromethyl)-1-((1r,4R)-4-((5-(2-(2,4-dioxotetrahydropyrimidin-1(2H)-yl)-1,3-dioxoisoindolin-5-yl)-2,5-diazabicyclo[2.2.2]octan-2-yl)methyl)cyclohexyl)-1H-pyrazol-4-yl)pyrazolo[1,5-a]pyrimidine-3-carboxamide]",Degradation of substrate protein IRAK4 (substrate protein remaining %) [4]: A (0%≤substrate protein remaining %≤80%)
10 to 20%,60 to 80%,"O=C1CCN(N2Cc3cc(CN4CCN(c5ccn6c(n5)nc5ccccc56)CC4)ccc3C2=O)C(=O)N1 [GT-08565, 1-(5-((4-(benzo[4,5]imidazo[1,2-a]pyrimidin-2-yl)piperazin-1-yl)methyl)-1-oxoisoindolin-2-yl)dihydropyrimidine-2,4 (1H,3H)-dione]",–

# Source: patent publication US20260364184A1, “COMPOUND BASED ON OXOISOINDOLINYL-SUBSTITUTED TETRAHYDROPYRIMIDINE-DIONE AND USE THEREOF” (GLUETACS THERAPEUTICS (SHANGHAI) CO., LTD., priority 2023, published 2026)
